From PMC6647725 (Analytical and Bioanalytical Chemistry, 2019)
Blank lines part the entries; values can stand above or below the compound they belong to.

Experiments:
[1] = Plasma pharmacokinetics in mice after oral administration; format: in vivo, mouse (FVB)
Protocol: This method was developed to support pharmacokinetic and tissue distribution studies of the CDK4/6 inhibitors in mice (FVB background). These studies were done separately for each drug. Animal housing and studies were conducted according to institutional guidelines complying with Dutch and European Union legislation (approval number from The Dutch Central Animal Testing Committee: AVD301002016595). […] Approximately 50 μL of blood was collected from the tip of the tail at several time points, except at the last one, when 500–1000 μL of blood was collected by cardiac puncture under isoflurane anesthesia. […] Mice were sacrificed by cervical dislocation and the organs were collected and weighed. Plasma was obtained using sodium heparin as anticoagulant after centrifugation at 9000g, 4 °C, for 6 min. When necessary, 10 μL of mouse plasma was diluted with 40 μL of human plasma. The tissue homogenates were prepared according to the procedure described in the “Tissue homogenate preparation” section. Plasma and tissue homogenate samples were stored at − 20 and − 70 °C, respectively, until the LC-MS/MS analysis was performed.

[2] = Stability in mouse kidney homogenate and its final extract; format: in vitro ADME; settings: nominal 50 ng/mL
Protocol: (§1) After weighing the complete organ, a volume of 3 mL of this solution was added to the liver and small intestine, 2 mL to the kidneys, and 1 mL to the brain and spleen. The tissue/BSA ratio (w/v) of the homogenates were approximately 0.4:1 for the brain and liver, 0.1:1 for the spleen, 0.2:1 for the kidneys, and 0.25:1 for the small intestine. All samples were shaken in the Fast Prep at 6.0 m/s during 60 s. The stability of each analyte was investigated in all the previously mentioned matrices. For plasma (both human and mouse), the stability was determined in triplicate at two concentration levels, QC L and QC H, whereas for mouse tissue homogenates only at QC M (except the brain in one stability condition). For all matrices, the following stability conditions were assessed: short term at room temperature (RT), long term at − 20 °C, and after 3 freeze-thaw (F/T) cycles at − 20 °C/RT. Furthermore, for tissue homogenates, the short-term stability in ice-water, long-term stability at − 70 °C, and F/T stability at − 70 °C/ice-water were also evaluated. Additionally, the stability in the final extract was tested. For this, the QC L and QC H final extracts from the plasma, brain, and spleen and the QC M final extract from the liver, kidney and small intestine were stored at 4–8 °C up to 3 days. Lastly, the stability of the stock solutions at − 20 °C was investigated.

[3] = Stability in mouse small intestine homogenate and its final extract; format: in vitro ADME; settings: nominal 50 ng/mL
Protocol: as §1

[4] = Stability in human plasma and its final extract (LC-MS/MS); format: in vitro ADME
Protocol: 50 μL of the sample (either from a preclinical study, calibration standard, or QC) was mixed with 25 μL of IS-working solution, followed by 150 μL of ACN for protein precipitation. Samples were vortex mixed and centrifuged at 23,100g for 10 min at 20 °C. An aliquot of 80 μL of supernatant was diluted with 120 μL of 10 mM ammonium bicarbonate in water:MeOH (1:1 v/v). The final extract was transferred to a glass vial with insert, and 10 μL was injected to the LC-MS/MS system for analysis.
The stability of each analyte was investigated in all the previously mentioned matrices. For plasma (both human and mouse), the stability was determined in triplicate at two concentration levels, QC L and QC H, whereas for mouse tissue homogenates only at QC M (except the brain in one stability condition). For all matrices, the following stability conditions were assessed: short term at room temperature (RT), long term at − 20 °C, and after 3 freeze-thaw (F/T) cycles at − 20 °C/RT. Furthermore, for tissue homogenates, the short-term stability in ice-water, long-term stability at − 70 °C, and F/T stability at − 70 °C/ice-water were also evaluated. Additionally, the stability in the final extract was tested. […] Lastly, the stability of the stock solutions at − 20 °C was investigated.

[5] = Stability in mouse brain homogenate and its final extract; format: in vitro ADME
Protocol: as §1

[6] = Stability in mouse liver homogenate and its final extract; format: in vitro ADME; settings: nominal 50 ng/mL
Protocol: as §1

CDK4 = settings: cited from earlier work
[7] = final extract (listed under kidney homogenate), 4–8 °C, 2 d
[8] = kidney homogenate, 3 F/T (RT, − 20 °C)
[9] = kidney homogenate, 3 F/T (− 70 °C, ice/water bath)
[10] = kidney homogenate, LT − 20 °C, 1 m
[11] = kidney homogenate, LT − 70 °C, 1 m
[12] = kidney homogenate, ice/water bath, 3 h
[13] = final extract (listed under small intestine homogenate), 4–8 °C, 2 d
[14] = small intestine homogenate, 3 F/T (RT, − 20 °C)
[15] = small intestine homogenate, 3 F/T (− 70 °C, ice/water bath)
[16] = small intestine homogenate, LT − 20 °C, 1 m
[17] = small intestine homogenate, LT − 70 °C, 1 m
[18] = small intestine homogenate, RT, 3 h
[19] = small intestine homogenate, RT, 1 d
[20] = small intestine homogenate, ice/water bath, 3 h
[21] = final extract (listed under human plasma), 4–8 °C, 4 d, nominal 5 ng/mL
[22] = final extract (listed under human plasma), 4–8 °C, 4 d, nominal 150 ng/mL
[23] = human plasma, 3 F/T (− 20 °C/RT), nominal 5 ng/mL
[24] = human plasma, RT, 3 d, nominal 5 ng/mL
[25] = human plasma, RT, 3 d, nominal 150 ng/mL
[26] = human plasma, − 20 °C, 12 m, nominal 5 ng/mL
[27] = brain homogenate, 3 F/T (RT, − 20 °C), nominal 50 ng/mL
[28] = brain homogenate, 3 F/T (− 70 °C, ice/water bath), nominal 50 ng/mL
[29] = brain homogenate, LT − 20 °C, 1 m, nominal 50 ng/mL
[30] = brain homogenate, LT − 70 °C, 1 m, nominal 50 ng/mL
[31] = brain homogenate, RT, 1 d, nominal 5 ng/mL
[32] = brain homogenate, RT, 1 d, nominal 150 ng/mL
[33] = brain homogenate, ice/water bath, 3 h, nominal 50 ng/mL
[34] = final extract (listed under brain homogenate), 4–8 °C, 3 d, nominal 5 ng/mL
[35] = final extract (listed under brain homogenate), 4–8 °C, 3 d, nominal 150 ng/mL
[36] = final extract (listed under liver homogenate), 4–8 °C, 2 d
[37] = liver homogenate, 3 F/T (RT, − 20 °C)
[38] = liver homogenate, 3 F/T (− 70 °C, ice/water bath)
[39] = liver homogenate, LT − 20 °C, 1 m
[40] = liver homogenate, LT − 70 °C, 1 m
[41] = liver homogenate, ice/water bath, 3 h

concentration at 24 h ([1]; FVB, po, mouse plasma, 10 mg/kg orally administered, t = 24 h, read-out: plasma concentration of representative sample): 74.3 ng/mL
Accuracy (% Bias) [2, 9]: 3.6%
Accuracy (% Bias) [2, 11]: 5.5%
Accuracy (% Bias) ([2]; kidney homogenate, RT, 3 h): 1.7%
Mean concentration ([2]; kidney homogenate, RT, 1 d): 43.3 ng/mL
Accuracy (% Bias) [3, 13]: 4.7%
Accuracy (% Bias) [3, 15]: 1.5%
Mean concentration [3, 16]: 48.2 ng/mL
Mean concentration [3, 17]: 48.3 ng/mL
Accuracy (% Bias) [3, 18]: 12.3%
Mean concentration [3, 18]: 56.4 ng/mL
Mean concentration [3, 19]: 46.4 ng/mL
Accuracy (% Bias) [3, 20]: 3.1%
Accuracy (% Bias) [4, 21]: 4.5%
Accuracy (% Bias) [4, 22]: 7.1%
Accuracy (% Bias) [4, 25]: 6.2%
Accuracy (% Bias) [5, 27]: 6.9%
Mean concentration [5, 27]: 53.4 ng/mL
Accuracy (% Bias) [5, 28]: 2.2%
Accuracy (% Bias) [5, 29]: 3.9%
Accuracy (% Bias) [5, 30]: 4.3%
Accuracy (% Bias) [5, 31]: 6.2%
Mean concentration [5, 31]: 5.3 ng/mL
Accuracy (% Bias) [5, 32]: 11.3%
Mean concentration [5, 32]: 167 ng/mL
Accuracy (% Bias) [5, 33]: 10.4%
Mean concentration [5, 33]: 55.2 ng/mL
Accuracy (% Bias) [5, 35]: 8.7%
Accuracy (% Bias) [6, 37]: 5.0%
Accuracy (% Bias) [6, 38]: 0.1%
Mean concentration [6, 38]: 50.0 ng/mL
Accuracy (% Bias) [6, 39]: 1.4%
Accuracy (% Bias) [6, 40]: 1.2%
Accuracy (% Bias) [6, 41]: 3.8%
Compound: CCN1CCN(Cc2ccc(Nc3ncc(F)c(-c4cc(F)c5nc(C)n(C(C)C)c5c4)n3)nc2)CC1 [Abemaciclib]

concentration at 8 h ([1]; female, FVB, po, mouse plasma, 20 mg/kg orally administered, t = 8 h, read-out: plasma concentration of representative sample): 625 ng/mL
Cmax ([1]; mouse, female FVB mice, 20 mg/kg oral, plasma, n = 6): 1040 ± 352 ng/mL
AUC(0-t) ([1]; mouse, female FVB mice, 20 mg/kg oral, plasma, n = 6, read-out: AUC0–24h): 6880 ± 1220 ng·h/mL
Mean concentration [2, 8]: 15.7 ng/mL
Mean concentration [2, 10]: 31.5 ng/mL
Mean concentration ([2]; kidney homogenate, RT, 1 d): 0.91 ng/mL
Mean concentration [3, 14]: 45.6 ng/mL
Mean concentration [3, 16]: 38.9 ng/mL
Accuracy (% Bias) [3, 18]: 1.3%
Mean concentration [3, 18]: 50.6 ng/mL
Mean concentration [3, 20]: 48.4 ng/mL
Mean concentration ([4]; human plasma, 2 F/T (− 20 °C/RT), nominal 5 ng/mL): 4.7 ng/mL
Accuracy (% Bias) [5, 30]: 4.6%
Mean concentration [5, 30]: 52.3 ng/mL
Mean concentration [5, 32]: 129.7 ng/mL
Mean concentration [5, 33]: 49.4 ng/mL
Accuracy (% Bias) [5, 34]: 2.7%
Accuracy (% Bias) [5, 35]: 3.1%
Mean concentration [6, 37]: 47.7 ng/mL
Mean concentration [6, 39]: 32.4 ng/mL
Mean concentration [6, 41]: 45.4 ng/mL
Compound: CN(C)C(=O)c1cc2cnc(Nc3ccc(N4CCNCC4)cn3)nc2n1C1CCCC1 [Ribociclib]
